In patent US5589497A, “Phenylimidazolidines” (Uclaf; Roussel, priority 1992, dated 1996):

Biological target: T1, androgenic receptors (rat prostate cytosol) (Rattus norvegicus, UniProt P15207)
T1 construct: from tissue; host or cells: prostate cytosol (209,000 g supernatant) of castrated male Sprague Dawley EOPS rats
T1 sequence (P15207 1-902): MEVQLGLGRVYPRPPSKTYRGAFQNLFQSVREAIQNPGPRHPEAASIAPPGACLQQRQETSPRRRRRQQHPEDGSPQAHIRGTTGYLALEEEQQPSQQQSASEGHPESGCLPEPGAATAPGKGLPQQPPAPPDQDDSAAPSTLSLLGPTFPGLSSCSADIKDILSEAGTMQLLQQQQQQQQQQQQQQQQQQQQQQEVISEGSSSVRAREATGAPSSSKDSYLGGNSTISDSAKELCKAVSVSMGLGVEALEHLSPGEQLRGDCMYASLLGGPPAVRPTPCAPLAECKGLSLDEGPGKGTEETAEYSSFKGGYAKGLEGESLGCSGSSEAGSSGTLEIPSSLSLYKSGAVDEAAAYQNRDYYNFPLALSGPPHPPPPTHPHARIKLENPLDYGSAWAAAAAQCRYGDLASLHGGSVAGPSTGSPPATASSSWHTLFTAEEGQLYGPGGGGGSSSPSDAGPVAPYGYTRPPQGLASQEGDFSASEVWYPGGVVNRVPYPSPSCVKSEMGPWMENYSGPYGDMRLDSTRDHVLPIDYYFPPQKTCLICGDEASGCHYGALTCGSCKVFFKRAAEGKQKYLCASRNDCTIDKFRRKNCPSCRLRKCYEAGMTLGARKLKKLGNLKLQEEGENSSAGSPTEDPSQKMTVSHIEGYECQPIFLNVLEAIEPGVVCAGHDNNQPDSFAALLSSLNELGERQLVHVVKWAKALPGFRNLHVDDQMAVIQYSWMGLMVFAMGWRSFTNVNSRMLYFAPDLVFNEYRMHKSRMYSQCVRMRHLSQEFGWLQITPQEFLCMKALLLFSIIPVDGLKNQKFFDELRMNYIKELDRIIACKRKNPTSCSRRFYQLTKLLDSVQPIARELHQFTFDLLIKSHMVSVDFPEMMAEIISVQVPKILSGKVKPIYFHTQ
Test: Study of androgenic receptors: relative binding affinity (RBA) versus tritiated testosterone in prostate cytosol of castrated rats
Parameters: species or system male rats of the Sprague Dawley EOPS strain
Conditions: 24 H incubation; testosterone=100; RBA=100(CH)/(CX)
Experimental: Male rats of the Sprague Dawley EOPS strain weighing 180 to 200 g, castrated 24 hours previously, were killed and the prostate was removed, weighed and homogenized at 0° C. with a potter glass in a buffered solution (Tris 10 mM, saccharose 0.25M, PMSF (phenyl methane sulfonyl fluoride) 0.1 mM, sodium molybdate 20 mM, HCl pH 7.4 into which was added extemporaneously […] of DTT (DL dithiothreitol) at a rate of 1 g of tissue per 8 ml of buffer solution. The homogenate was then ultracentrifuged at 0° C. for 30 minutes at 209,000 g and the aliquots of supernatant (=cytosol) were incubated for 30 minutes and 24 hours with a concentration (T) of tritiated testosterone and in the presence of increasing concentrations (0 to 2500×10^-9 M) of cold testosterone or the test products. The concentration of bound tritiated testosterone (B) was then measured for each incubate by adsorption method of carbon-dextran. The relative affinity of bonding (RBA) was calculated.
The following two curves were graphed: the percentage of the bound tritiated hormone B/T as a logarithmic function of the concentration of the cold hormone and B/T as a logarithmic function of the concentration of the tested cold product. The line of the equation I50 =(B/Tmax+B/Tmin)/2 was determined.
B/T max=% of the bound tritiated hormone for an incubation of this tritiated hormone at concentration (T). […]

| SMILES | relative affinity of bonding (RBA) |
| --- | --- |
| CN1C(=S)N(c2ccc(C#N)c(C(F)(F)F)c2)C(=O)C12CCCC2 [Example 3, 4-(1-methyl-4-oxo-2-thioxo-1,3-diazaspiro(4,4)nonan-3-yl)-2-trifluoromethyl-benzonitrile] | 27 |
| CCC1(CC)C(=O)N(c2ccc(C#N)c(C(F)(F)F)c2)C(=S)N1C [Example 5, 4-(4,4-diethyl-3-methyl-5-oxo-2-thioxo-1-imidazolidinyl)-2-trifluoromethyl-benzonitrile] | 8 |
